Each block holds one compound with its values, some of them ahead of it.
Experiments:
[1] = target: Prostaglandin G/H synthase 1 (Homo sapiens, UniProt P23219); assay: Inhibition of human recombinant COX1 pre-incubated for 15 mins before fluorometric substrate addition by fluorescence based assay
[2] = Oral bioavailability in Sprague-Dawley rat at 25 mg/kg measured during 1 to 24 hrs by LC-MS method; format: ADME, organism-based; conditions: in vivo
[3] = Tmax in Sprague-Dawley rat at 25 mg/kg, po measured during 1 to 24 hrs by LC-MS method; format: ADME, organism-based; parameters: dose 25 mg/kg, route oral; conditions: in vivo
[4] = Cmax in Sprague-Dawley rat at 25 mg/kg, po measured during 1 to 24 hrs by LC-MS method; format: ADME, organism-based; parameters: dose 25 mg/kg, route oral; conditions: in vivo
Rattus norvegicus [5] = assay: Volume of distribution in Sprague-Dawley rat at 25 mg/kg, po measured during 1 to 24 hrs by LC-MS method; format: ADME, organism-based; parameters: dose 25 mg/kg, route oral; conditions: in vivo
[6] = Half life in Sprague-Dawley rat at 25 mg/kg, po measured during 1 to 24 hrs by LC-MS method; format: ADME, organism-based; parameters: dose 25 mg/kg, route oral; conditions: in vivo
[7] = AUC (0 to infinity) in Sprague-Dawley rat at 25 mg/kg, po measured during 1 to 24 hrs by LC-MS method; format: ADME, organism-based; parameters: time infinity, dose 25 mg/kg, route oral; conditions: plasma
[8] = Apparent oral clearance in Sprague-Dawley rat at 25 mg/kg, po measured during 1 to 24 hrs by LC-MS method; format: ADME, organism-based; parameters: dose 25 mg/kg, route oral; conditions: in vivo
[9] = Cmax in Sprague-Dawley rat at 5 mg/kg, iv measured during 1 to 24 hrs by LC-MS method; format: ADME, organism-based; parameters: dose 5 mg/kg, route intravenous; conditions: in vivo
[10] = Volume of distribution in Sprague-Dawley rat at 5 mg/kg, iv measured during 1 to 24 hrs by LC-MS method; format: ADME, organism-based; parameters: dose 5 mg/kg, route intravenous; conditions: in vivo
Rattus norvegicus [11] = assay: Half life in Sprague-Dawley rat at 5 mg/kg, iv measured during 1 to 24 hrs by LC-MS method; format: ADME, organism-based; parameters: dose 5 mg/kg, route intravenous; conditions: in vivo
[12] = AUC (0 to infinity) in Sprague-Dawley rat at 5 mg/kg, iv measured during 1 to 24 hrs by LC-MS method; format: ADME, organism-based, Plasma; parameters: time infinity, dose 5 mg/kg, route intravenous; conditions: Sprague-Dawley, plasma
[13] = Apparent oral clearance in Sprague-Dawley rat at 5 mg/kg, iv measured during 1 to 24 hrs by LC-MS method; format: ADME, organism-based; parameters: dose 5 mg/kg, route oral; conditions: in vivo
[14] = target: T1, Prostaglandin G/H synthase 2 (Homo sapiens, UniProt P35354); assay: Inhibition of human recombinant COX2 pre-incubated for 15 mins before fluorometric substrate addition by fluorescence based assay
T1 sequence (P35354 whole entry): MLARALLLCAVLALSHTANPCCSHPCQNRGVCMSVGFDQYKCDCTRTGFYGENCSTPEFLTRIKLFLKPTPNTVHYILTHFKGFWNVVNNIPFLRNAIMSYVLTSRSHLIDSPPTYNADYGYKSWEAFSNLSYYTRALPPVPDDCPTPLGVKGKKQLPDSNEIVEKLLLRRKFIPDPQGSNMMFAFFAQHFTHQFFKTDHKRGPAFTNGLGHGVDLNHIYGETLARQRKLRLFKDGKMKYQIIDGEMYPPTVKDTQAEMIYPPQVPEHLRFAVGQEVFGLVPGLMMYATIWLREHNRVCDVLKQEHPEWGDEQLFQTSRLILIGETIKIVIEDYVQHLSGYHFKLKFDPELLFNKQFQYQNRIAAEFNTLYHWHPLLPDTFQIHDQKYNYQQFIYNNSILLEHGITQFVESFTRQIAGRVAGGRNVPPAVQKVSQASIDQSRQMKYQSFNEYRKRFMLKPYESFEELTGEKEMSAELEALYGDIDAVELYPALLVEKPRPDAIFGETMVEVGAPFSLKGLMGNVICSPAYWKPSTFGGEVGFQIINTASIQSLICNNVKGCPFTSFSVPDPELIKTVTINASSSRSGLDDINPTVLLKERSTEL

[15] = Oral bioavailability in Sprague-Dawley rat at 2.5 mg/kg measured during 1 to 24 hrs by LC-MS method; format: ADME, organism-based; conditions: Sprague-Dawley, in vivo
Rattus norvegicus [16] = assay: Tmax in Sprague-Dawley rat at 2.5 mg/kg, po measured during 1 to 24 hrs by LC-MS method; format: ADME, organism-based; parameters: dose 2.5 mg/kg, route oral; conditions: in vivo
[17] = Cmax in Sprague-Dawley rat at 2.5 mg/kg, po measured during 1 to 24 hrs by LC-MS method; format: ADME, organism-based; parameters: dose 2.5 mg/kg, route oral; conditions: in vivo
Rattus norvegicus [18] = assay: Volume of distribution in Sprague-Dawley rat at 2.5 mg/kg, po measured during 1 to 24 hrs by LC-MS method; format: ADME, organism-based; parameters: dose 2.5 mg/kg, route oral; conditions: in vivo
Rattus norvegicus [19] = assay: Half life in Sprague-Dawley rat at 2.5 mg/kg, po measured during 1 to 24 hrs by LC-MS method; format: ADME, organism-based; parameters: dose 2.5 mg/kg, route oral; conditions: in vivo
[20] = AUC (0 to infinity) in Sprague-Dawley rat at 2.5 mg/kg, po measured during 1 to 24 hrs by LC-MS method; format: ADME, organism-based, Plasma; parameters: dose 2.5 mg/kg, route oral, time infinity; conditions: Sprague-Dawley, plasma
[21] = Apparent oral clearance in Sprague-Dawley rat at 2.5 mg/kg, po measured during 1 to 24 hrs by LC-MS method; format: ADME, organism-based; parameters: dose 2.5 mg/kg, route oral; conditions: Sprague-Dawley, in vivo
[22] = Cmax in Sprague-Dawley rat at 1 mg/kg, iv measured during 1 to 24 hrs by LC-MS method; format: ADME, organism-based; parameters: dose 1 mg/kg, route intravenous; conditions: in vivo
[23] = Volume of distribution in Sprague-Dawley rat at 1 mg/kg, iv measured during 1 to 24 hrs by LC-MS method; format: ADME, organism-based; parameters: dose 1 mg/kg, route intravenous; conditions: in vivo
Rattus norvegicus [24] = assay: Half life in Sprague-Dawley rat at 1 mg/kg, iv measured during 1 to 24 hrs by LC-MS method; format: ADME, organism-based; parameters: dose 1 mg/kg, route intravenous; conditions: in vivo
[25] = AUC (0 to infinity) in Sprague-Dawley rat at 1 mg/kg, iv measured during 1 to 24 hrs by LC-MS method; format: ADME, organism-based, Plasma; parameters: time infinity, dose 1 mg/kg, route intravenous; conditions: Sprague-Dawley, plasma
[26] = Apparent oral clearance in Sprague-Dawley rat at 1 mg/kg, iv measured during 1 to 24 hrs by LC-MS method; format: ADME, organism-based; parameters: dose 1 mg/kg, route oral; conditions: in vivo

Prostaglandin G/H synthase 1, sequence (P23219 whole entry): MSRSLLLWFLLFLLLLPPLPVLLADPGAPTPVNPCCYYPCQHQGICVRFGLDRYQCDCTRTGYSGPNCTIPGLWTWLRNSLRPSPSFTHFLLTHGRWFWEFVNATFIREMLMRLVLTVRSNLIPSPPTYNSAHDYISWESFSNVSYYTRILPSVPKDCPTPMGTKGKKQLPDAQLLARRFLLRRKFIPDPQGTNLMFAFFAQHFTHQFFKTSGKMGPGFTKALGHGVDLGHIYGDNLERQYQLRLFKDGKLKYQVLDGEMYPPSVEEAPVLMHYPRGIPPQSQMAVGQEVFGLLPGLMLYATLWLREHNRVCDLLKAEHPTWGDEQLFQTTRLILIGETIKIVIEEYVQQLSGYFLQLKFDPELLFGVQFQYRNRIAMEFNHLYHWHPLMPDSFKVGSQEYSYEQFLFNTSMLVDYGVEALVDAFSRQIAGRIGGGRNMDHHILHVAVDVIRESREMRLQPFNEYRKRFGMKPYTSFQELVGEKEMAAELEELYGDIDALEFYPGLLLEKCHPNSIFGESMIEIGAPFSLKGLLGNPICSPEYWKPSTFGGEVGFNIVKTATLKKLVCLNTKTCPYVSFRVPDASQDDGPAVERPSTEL

IC50 [1]: > 100 µM | bioavailability [2]: 78.6% | Tmax [3]: 1.62 h | Cmax [4]: 29500 ng/mL | Vd (Rattus norvegicus [5]): 0.678 L/kg | half-life [6]: 9.54 h | AUC(0-inf) [7]: 511000 ng·h/mL | CL/F [8]: 0.817 mL/min/kg | Cmax [9]: 37200 ng/mL | Vd [10]: 0.301 L/kg | t1/2 (Rattus norvegicus [11]): 5.446 h | AUC(0-inf) [12]: 131000 ng·h/mL | CL/F [13]: 0.633 mL/min/kg
SMILES: CCc1cc(OC(F)(F)F)cc2c1OC(C(F)(F)F)C(C(=O)O)=C2 (configuration not stated)

IC50 [1]: > 100 µM | IC50 [14]: 0.19 µM | bioavailability [15]: 56.7% | Tmax (Rattus norvegicus [16]): 0.375 h | Cmax [17]: 5340 ng/mL | Vd (Rattus norvegicus [18]): 1.13 L/kg | t1/2 (Rattus norvegicus [19]): 3.53 h | AUC(0-inf) [20]: 12500 ng·h/mL | CL/F [21]: 3.52 mL/min/kg | Cmax [22]: 16700 ng/mL | Vd [23]: 0.38 L/kg | t1/2 (Rattus norvegicus [24]): 2.3 h | AUC(0-inf) [25]: 8840 ng·h/mL | CL/F [26]: 1.98 mL/min/kg
SMILES: Cc1cc2c(c(C)c1Br)C=C(C(=O)O)C(C(F)(F)F)O2 (configuration not stated)
